Laboratory results taken from patent US8795635B2, “Substantially non-aqueous foamable petrolatum based pharmaceutical and cosmetic compositions and their uses” (Foamix Ltd., priority 2006, dated 2014).
In brackets after ≈: the same amount, converted by molar mass. Where two headings read alike, the source gives them in different places.

How the values were obtained:
[1] = cited from earlier work
physchem = details: for solubility: organic solvent or mixture
Description: In one or more embodiments, the foamable composition includes a potent solvent, in addition to or in place of one of the hydrophobic solvents, polar solvents or emollients of the composition. A potent solvent is a solvent other than mineral oil that solubilizes a specific active agent substantially better than a hydrocarbon solvent such as mineral oil or petrolatum.
In one or more embodiments, the composition includes at least one active agent in a therapeutically effective concentration; and at least one potent solvent in a sufficient amount to substantially solubilize the at least one active agent in the composition. […] In one or more embodiments, the concentration of the at least one potent solvent is more than about 40% of the at least one solvent of the composition; or even more than about 60%.

| Structure (SMILES) | Solubility in glycofurol (physchem) | Solubility in mineral oil (physchem) [%] | Solubility in dimethyl isosorbide (physchem) | also measured |
| --- | --- | --- | --- | --- |
| CCCCC(=O)O[C@]1(C(=O)CO)[C@@H](C)C[C@H]2[C@@H]3CCC4=CC(=O)C=C[C@]4(C)[C@@]3(F)[C@@H](O)C[C@@]21C [Betamethasone valerate] | more than 1% | < 0.01 | – | solubility in water ([1]; in words): practically insoluble |
| CCCC(=O)O[C@]1(C(=O)CO)CC[C@H]2[C@@H]3CCC4=CC(=O)CC[C@]4(C)[C@H]3[C@@H](O)C[C@@]21C [Hydrocortisone butyrate] | more than 1% | < 0.01 | – | – |
| CC(=O)N1CCN(c2ccc(OCC3COC(Cn4ccnc4)(c4ccc(Cl)cc4Cl)O3)cc2)CC1 (stereo not drawn) [Ketoconazole] | more than 1% | < 0.01 | more than 1% | Solubility in propylene glycol (physchem): more than 1% |
| Cc1cnc(NC(=O)C2=C(O)c3ccccc3S(=O)(=O)N2C)s1 [Meloxicam] | – | < 0.001 | – | solubility (physchem; Solubility in PEG 400): 3700 µg/mL (≈ 10.5 mM); solubility (physchem; Solubility in propylene glycol): 300 µg/mL (≈ 0.854 mM) |
| Cc1ncc([N+](=O)[O-])n1CCO [Metronidazole] | – | < 0.01 | more than 1% | – |
| C/C(=C\C(=O)OCCCCCCCCC(=O)O)C[C@@H]1OC[C@H](C[C@@H]2O[C@H]2[C@@H](C)[C@H](C)O)[C@@H](O)[C@H]1O [Mupirocin] | more than 1% | < 0.01 | more than 1% | Solubility in polyethylene glycol 400 (PEG 400) (physchem): more than 1%; Solubility in propylene glycol (physchem): more than 1% |
| CC(=O)[C@H]1CC[C@H]2[C@@H]3CCC4=CC(=O)CC[C@]4(C)[C@H]3CC[C@]12C [Progesterone] | – | < 0.001 | – | solubility (physchem; Solubility in PEG 400): 15300 µg/mL (≈ 48.7 mM) |
| C=C1/C(=C\C=C2/CCC[C@]3(C)[C@@H]([C@H](C)/C=C/[C@@H](O)C4CC4)CC[C@@H]23)C[C@@H](O)C[C@@H]1O [calcipotriol] | – | – | – | solubility in water [1]: 0.6 µg/mL (≈ 0.00145 mM) |
| CCC(=O)O[C@]1(C(=O)CCl)[C@@H](C)C[C@H]2[C@@H]3CCC4=CC(=O)C=C[C@]4(C)[C@@]3(F)[C@@H](O)C[C@@]21C [clobestol proprionate] | – | – | – | degree of solubility in water or petrolatum or the composition ([1]; in words): practically insoluble |
| C=CC[C@@H]1/C=C(\C)C[C@H](C)C[C@H](OC)[C@H]2O[C@@](O)(C(=O)C(=O)N3CCCC[C@H]3C(=O)O[C@H](/C(C)=C/[C@@H]3CC[C@@H](O)[C@H](OC)C3)[C@H](C)[C@@H](O)CC1=O)[C@H](C)C[C@@H]2OC [tacrolimus] | – | – | – | solubility in water ([1]; in words): insoluble |
